According to ChEMBL document CHEMBL1201862, “PubChem BioAssay data set” (2004):
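Five compound concentrations were applied to cells in 96-well plates for 48 hours; endpoints were derived by simple linear interpolation of the resulting dose-response curve. GI50 marks 50% less growth.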 Activity calls are given as the source filed them. No stated cut-off is given here; in the data, active = GI50 up to about 1.1 µM and inactive = higher.

Legend:
Assay in all cases: NCI anticancer screen, dose series, 48 h
A498 = tested on: A498
T47D = tested on: T47D
HT-29 = tested on: HT-29
NCI-H226 = tested on: NCI-H226
COLO 205 = tested on: COLO 205
SW-620 = tested on: SW-620
SF-268 = tested on: SF-268
CAKI-1 = tested on: CAKI-1
Hs-578T = tested on: Hs-578T
SF-539 = tested on: SF-539
HCT-116 = tested on: HCT-116
HL-60 = tested on: HL-60
PC-3 = tested on: PC-3
HCT-15 = tested on: HCT-15
HOP-62 = tested on: HOP-62
SR = tested on: SR
NCI-H460 = tested on: NCI-H460
SK-MEL-2 = tested on: SK-MEL-2
BT-549 = tested on: BT-549
DU-145 = tested on: DU-145

SMILES	GI50 (A498)	GI50 (T47D)	GI50 (HT-29)	GI50 (NCI-H226)	GI50 (COLO 205)	GI50 (SW-620)	GI50 (SF-268)	GI50 (CAKI-1)	GI50 (Hs-578T)	GI50 (SF-539)	GI50 (HCT-116)	GI50 (HL-60)	GI50 (PC-3)	GI50 (HCT-15) [µM]	GI50 (HOP-62)	GI50 (SR)	GI50 (NCI-H460)	GI50 (SK-MEL-2)	GI50 (BT-549)	GI50 (DU-145)
CN(C)Cc1cc(/N=N/c2c(Cl)cccc2Cl)ccc1O	55.5 µM (inactive)	42.6 µM (inactive)	50.4 µM (inactive)	35.2 µM (inactive)	> 100 µM (inactive)	79.6 µM (inactive)	> 100 µM (inactive)	> 100 µM (inactive)	40.9 µM (inactive)	> 100 µM (inactive)	> 100 µM (inactive)	68.4 µM (inactive)	> 100 µM (inactive)	> 100	> 100 µM (inactive)	48.9 µM (inactive)	75 µM (inactive)	> 100 µM (inactive)	49 µM (inactive)	8.49 µM (inactive)
Cc1ccc(C(=O)/C(C#N)=C/Nc2c(C)n(C)n(-c3ccccc3)c2=O)cc1	> 100 µM (inactive)	> 100 µM (inactive)	> 100 µM (inactive)	> 100 µM (inactive)	> 100 µM (inactive)	> 100 µM (inactive)	> 100 µM (inactive)	> 100 µM (inactive)	> 100 µM (inactive)	> 100 µM (inactive)	> 100 µM (inactive)	> 100 µM (inactive)	> 100 µM (inactive)	> 100	> 100 µM (inactive)	> 100 µM (inactive)	> 100 µM (inactive)	> 100 µM (inactive)	> 100 µM (inactive)	> 100 µM (inactive)
C#CCn1c(I)cc2c(c1=O)COC(=O)[C@]2(O)CC	> 100 µM (inactive)	> 100 µM (inactive)	> 100 µM (inactive)	> 100 µM (inactive)	> 100 µM (inactive)	> 100 µM (inactive)	> 100 µM (inactive)	> 100 µM (inactive)	> 100 µM (inactive)	> 100 µM (inactive)	> 100 µM (inactive)	> 100 µM (inactive)	> 100 µM (inactive)	> 100	> 100 µM (inactive)	> 100 µM (inactive)	> 100 µM (inactive)	> 100 µM (inactive)	> 100 µM (inactive)	> 100 µM (inactive)
CC1(c2cccc(Cl)c2)CC(c2cccc(Cl)c2)=C(C#N)C(=C(C#N)C#N)N1 (stereo not given)	20.3 µM (inactive)	13.2 µM (inactive)	27.4 µM (inactive)	18.7 µM (inactive)	13.2 µM (inactive)	12.1 µM (inactive)	4.62 µM (inactive)	16.5 µM (inactive)	9.75 µM (inactive)	19.1 µM (inactive)	16.6 µM (inactive)	18.4 µM (inactive)	17.6 µM (inactive)	16	19.4 µM (inactive)	14.3 µM (inactive)	27.6 µM (inactive)	21.7 µM (inactive)	22.8 µM (inactive)	15.8 µM (inactive)
N/C(=N\Nc1nc2cc([N+](=O)[O-])ccc2o1)c1ccccn1	0.248 µM (active)	0.073 µM (active)	0.0493 µM (active)	0.418 µM (active)	0.0366 µM (active)	0.113 µM (active)	0.0738 µM (active)	0.16 µM (active)	4.31 µM (inactive)	0.124 µM (active)	0.0369 µM (active)	0.0594 µM (active)	0.122 µM (active)	0.0287	0.232 µM (active)	0.013 µM (active)	0.0468 µM (active)	0.167 µM (active)	0.335 µM (active)	0.182 µM (active)
O=C(NCCCNCCN1C(=O)c2cccc3cc([N+](=O)[O-])cc(c23)C1=O)c1cc(-c2ccccc2)nc2ccccc12	4.2 µM (inactive)	8.07 µM (inactive)	0.971 µM (active)	7.26 µM (inactive)	1.45 µM (inactive)	0.955 µM (active)	1.39 µM (inactive)	6.07 µM (inactive)	3.41 µM (inactive)	1.98 µM (inactive)	1.23 µM (inactive)	1.76 µM (inactive)	3.61 µM (inactive)	3.03	6.49 µM (inactive)	0.426 µM (active)	1.55 µM (inactive)	3.31 µM (inactive)	6.15 µM (inactive)	5.21 µM (inactive)
C#C[C@]1(O)CC[C@H]2[C@@H]3CCC4=C/C(=N/NC(=O)c5cccc6cc7ccccc7nc56)CC[C@@H]4[C@H]3CC[C@@]21CC	> 100 µM (inactive)	21 µM (inactive)	41.4 µM (inactive)	> 100 µM (inactive)	70.5 µM (inactive)	> 100 µM (inactive)	70 µM (inactive)	29.3 µM (inactive)	94 µM (inactive)	33.9 µM (inactive)	60.5 µM (inactive)	48 µM (inactive)	62.2 µM (inactive)	56	67.9 µM (inactive)	38.5 µM (inactive)	36.3 µM (inactive)	> 100 µM (inactive)	> 100 µM (inactive)	> 100 µM (inactive)
COn1cc(CO)c2ccccc21	1.82 µM (inactive)	30.8 µM (inactive)	> 58.5 µM (inactive)	1.57 µM (inactive)	51.4 µM (inactive)	27.5 µM (inactive)	> 88.7 µM (inactive)	3.37 µM (inactive)	> 68.7 µM (inactive)	> 100 µM (inactive)	45.3 µM (inactive)	31.3 µM (inactive)	> 75.2 µM (inactive)	> 88.7	> 100 µM (inactive)	31.8 µM (inactive)	> 100 µM (inactive)	> 54.3 µM (inactive)	> 100 µM (inactive)	53.1 µM (inactive)
C/C(=N\N=C(/S)N(C)C)c1cccnn1	1.22 µM (inactive)	0.916 µM (active)	0.569 µM (active)	0.849 µM (active)	0.468 µM (active)	0.612 µM (active)	0.65 µM (active)	0.853 µM (active)	> 66.4 µM (inactive)	0.513 µM (active)	0.369 µM (active)	0.365 µM (active)	0.385 µM (active)	0.468	1.05 µM (active)	0.293 µM (active)	0.394 µM (active)	7.66 µM (inactive)	0.869 µM (active)	0.889 µM (active)
Cn1c(=O)c2c(nc3sc4c(n32)C(=O)c2c(O)ccc(O)c2C4=O)n(C)c1=O	22.1 µM (inactive)	2.43 µM (inactive)	2.19 µM (inactive)	53.8 µM (inactive)	3.46 µM (inactive)	0.406 µM (active)	6.04 µM (inactive)	6.04 µM (inactive)	16.3 µM (inactive)	3.44 µM (inactive)	1.87 µM (inactive)	0.51 µM (active)	5.4 µM (inactive)	1.73	12.8 µM (inactive)	0.598 µM (active)	20.5 µM (inactive)	4.42 µM (inactive)	5.9 µM (inactive)	11.2 µM (inactive)
COc1cc2c(cc1OC)C(=O)/C(=C/c1cc(C)c(O)c(C)c1)C2	> 21.2 µM (inactive)	> 100 µM (inactive)	5.19 µM (inactive)	23.8 µM (inactive)	5.02 µM (inactive)	< 0.0106 µM (active)	< 0.0143 µM (active)	0.0803 µM (active)	< 0.01 µM (active)	< 0.01 µM (active)	< 0.0112 µM (active)	< 0.01 µM (active)	< 0.01 µM (active)	< 0.01	< 0.01 µM (active)	< 0.01 µM (active)	< 0.01 µM (active)	< 0.01 µM (active)	> 100 µM (inactive)	< 0.01 µM (active)
